From patent US20230416227A1, “PLASMA KALLIKREIN INHIBITORS” (Merck Sharp & Dohme LLC, priority 2020, published 2023)

Legend:
Human plasma kallikrein = target: T1, Human plasma kallikrein (Homo sapiens, UniProt P03952); test: Plasma Kallikrein Assay; type: biochemical; conditions: purified Human plasma kallikrein 0.5 nM, substrate Acetyl-K-P-R-AFC, pH 7.4
T1 construct: yields a heavy chain (371 amino acids) and a light chain (248 amino acids); purchased Enzyme Research Laboratories

human factor XIa = human factor XIa (Homo sapiens, UniProt P03951); test: Factor XIa Assay; type: biochemical; conditions: human factor XIa 0.04 nM, substrate GPR-AFC, 30 min pre-incubation at 25° C., pH 7.4; read-out: FXIa IC50
Sequence of human factor XIa (P03951 388-625 limits assumed): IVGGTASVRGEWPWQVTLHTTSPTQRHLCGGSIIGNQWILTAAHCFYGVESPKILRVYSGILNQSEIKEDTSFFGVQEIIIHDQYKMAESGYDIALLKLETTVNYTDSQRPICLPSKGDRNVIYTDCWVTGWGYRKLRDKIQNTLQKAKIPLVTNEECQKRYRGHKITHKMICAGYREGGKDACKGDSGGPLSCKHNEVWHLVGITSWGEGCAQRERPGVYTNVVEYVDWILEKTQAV
Sequence of human factor XIa (P03951 19-387 partner limits assumed): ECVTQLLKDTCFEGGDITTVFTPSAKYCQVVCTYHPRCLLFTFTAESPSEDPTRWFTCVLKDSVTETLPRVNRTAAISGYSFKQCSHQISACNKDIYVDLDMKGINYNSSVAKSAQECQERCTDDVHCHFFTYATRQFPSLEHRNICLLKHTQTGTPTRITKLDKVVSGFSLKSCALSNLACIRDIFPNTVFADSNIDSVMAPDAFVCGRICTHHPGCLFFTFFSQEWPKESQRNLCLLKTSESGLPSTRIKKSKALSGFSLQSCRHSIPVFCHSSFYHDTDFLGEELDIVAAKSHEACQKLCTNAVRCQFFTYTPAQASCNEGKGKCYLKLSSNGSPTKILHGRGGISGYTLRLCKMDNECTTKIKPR
Description: The effectiveness of a compound of the present invention as an inhibitor of Coagulation factor XIa can be determined using a relevant purified serine protease, and an appropriate synthetic substrate. The rate of hydrolysis of the chromogenic or fluorogenic substrate by the relevant serine protease was measured both in the absence and presence of compounds of the present invention. Assays were conducted at rt or at 37° C. […] A decrease in the rate of fluorescence change in the presence of inhibitor is indicative of enzyme inhibition. Such methods are known to one skilled in the art. The results of this assay are expressed as the half-maximal inhibitory concentrations (IC50), or the inhibitory constant, Ki.
Compounds were pre-incubated for 30 min at 25° C. with human (0.04 nM) factor XIa in 50 mM HEPES buffer with 150 mM sodium chloride, 5 mM calcium chloride, 0.1% PEG 8000, pH 7.4. factor XIa enzymatic activity was determined by addition of the substrate glycine-proline-arginine-7-amido-4-trifluoromethylcoumarin (GPR-AFC) and measurement of the fluorescence at 400/505 nm after a 60 min incubation at 25° C. The % inhibition for each data point was calculated from the data and analyzed using the log (inhibitor) vs. response four parameters equation to determine the half-maximal inhibitory concentrations (IC50). The IC50 were converted to equilibrium inhibitory constants (Ki) using the Cheng-Prusoff equation.

T1 sequence (P03952 391-638 limits assumed): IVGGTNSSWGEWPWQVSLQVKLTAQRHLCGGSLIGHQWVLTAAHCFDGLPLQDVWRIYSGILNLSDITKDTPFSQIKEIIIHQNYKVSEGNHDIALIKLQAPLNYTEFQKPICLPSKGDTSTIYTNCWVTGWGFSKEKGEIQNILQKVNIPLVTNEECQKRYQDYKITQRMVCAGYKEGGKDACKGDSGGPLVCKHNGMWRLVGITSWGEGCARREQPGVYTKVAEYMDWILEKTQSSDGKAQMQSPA
T1 sequence (P03952 20-390 partner limits assumed): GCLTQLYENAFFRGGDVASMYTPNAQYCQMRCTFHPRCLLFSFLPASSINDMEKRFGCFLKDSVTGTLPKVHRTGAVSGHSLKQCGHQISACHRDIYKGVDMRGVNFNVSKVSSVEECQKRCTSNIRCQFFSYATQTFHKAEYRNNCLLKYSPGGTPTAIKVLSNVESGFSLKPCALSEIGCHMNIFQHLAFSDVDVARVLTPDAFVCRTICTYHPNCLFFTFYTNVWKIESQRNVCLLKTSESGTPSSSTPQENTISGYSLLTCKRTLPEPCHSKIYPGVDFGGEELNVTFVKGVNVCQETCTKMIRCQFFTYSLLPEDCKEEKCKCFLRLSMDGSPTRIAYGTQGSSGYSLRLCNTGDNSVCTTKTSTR

IC50 (Human plasma kallikrein) | IC50 (human factor XIa) | SMILES
0.0002 µM | 1.29 µM | CN(CC1CCCN1c1ncc(Cn2cc(NC(=O)c3cncc(-c4c(C(F)F)ccc(Cl)c4F)n3)cn2)cn1)CC1(O)CC1 (single isomer, unassigned) [Example 140, (S or R)-6-(3-Chloro-6-(difluoromethyl)-2-fluorophenyl)-N-(1-((2-(2-((((1-hydroxycyclopropyl)methyl)(methyl)amino)methyl)pyrrolidin-1-yl)pyrimidin-5-yl)methyl)-1H-pyrazol-4-yl)pyrazine-2-carboxamide]
0.0368 µM | 3.38 µM | O=C(Nc1cnn(Cc2cnc(N3CCCC3CCO)nc2)c1)c1cncc(-c2c(C(F)F)ccc(Cl)c2F)n1 (single isomer, unassigned) [Example 105, (S or R)-6-(3-Chloro-6-(difluoromethyl)-2-fluorophenyl)-N-(1-((2-(2-(2-hydroxyethyl)pyrrolidin-1-yl)pyrimidin-5-yl)methyl)-1H-pyrazol-4-yl)pyrazine-2-carboxamide]
0.0244 µM | 3.94 µM | C[C@@H](c1cnc(N2CCC2)nc1)n1cc(NC(=O)c2cncc(-c3c(C(F)(F)F)ccc(Cl)c3F)n2)cn1 (single isomer, unassigned) [Example 55]
0.0047 µM | 1.11 µM | [2H]C(C)(c1cnc(N2CCC2)nc1)n1cc(NC(=O)c2cncc(-c3c(C(F)F)ccc(Cl)c3F)n2)cn1 (single isomer, unassigned) [Example 42, (S or R)-N-(1-(1-(2-(azetidin-1-yl)pyrimidin-5-yl)ethyl-1-d)-1H-pyrazol-4-yl)-6-(3-chloro-6-(difluoromethyl)-2-fluorophenyl)pyrazine-2-carboxamide]
0.0281 µM | 3.33 µM | CC(c1cnc(N2CC3CC3C2)nc1)n1cc(NC(=O)c2nc(-c3c(C(F)F)ccc(Cl)c3F)cnc2N(C)C)cn1 (single isomer, unassigned) [Example 34, N-(1-((1R or 1S)-1-(2-(3-azabicyclo[3.1.0]hexan-3-yl)pyrimidin-5-yl)ethyl)-1H-pyrazol-4-yl)-6-(3-chloro-6-(difluoromethyl)-2-fluorophenyl)-3-(dimethylamino)pyrazine-2-carboxamide]
0.002 µM | 9.63 µM | CC(c1cnc(N2CC[C@H]2CN2CC[C@H](O)[C@@H]2C)nc1)n1cc(NC(=O)c2cncc(-c3c(C(F)F)ccc(Cl)c3F)n2)cn1 (stereo partly drawn) [Example 161, 6-(3-Chloro-6-(difluoromethyl)-2-fluorophenyl)-N-(1-(1-(2-((S)-2-(((2S,3S)-3-hydroxy-2-methylpyrrolidin-1-yl)methyl)azetidin-1-yl)pyrimidin-5-yl)ethyl)-1H-pyrazol-4-yl)pyrazine-2-carboxamide]
0.0006 µM | 5.5 µM | C[C@H](F)CN(C)CC1CCCN1c1ncc(Cn2cc(NC(=O)c3cncc(-c4c(C(F)F)ccc(Cl)c4F)n3)cn2)cn1 (stereo partly drawn) [Example 147, 6-(3-Chloro-6-(difluoromethyl)-2-fluorophenyl)-N-(1-((2-(2-((((S)-2-fluoropropyl)(methyl)amino)methyl)pyrrolidin-1-yl)pyrimidin-5-yl)methyl)-1H-pyrazol-4-yl)pyrazine-2-carboxamide]
0.0443 µM | 4.43 µM | O=C(Nc1cnn(C(c2cnc(N3CCC3)nc2)C(F)F)c1)c1cncc(-c2c(C(F)F)ccc(Cl)c2F)n1 (single isomer, unassigned) [Example 36, (S or R)-N-(1-(1-(2-(azetidin-1-yl)pyrimidin-5-yl)-2,2-difluoroethyl)-1H-pyrazol-4-yl)-6-(3-chloro-6-(difluoromethyl)-2-fluorophenyl)pyrazine-2-carboxamide]
0.0037 µM | 0.595 µM | Cc1ncc(-c2c(C(F)F)ccc(Cl)c2F)nc1C(=O)Nc1cnn(C(CO)c2cnc(N3CCC3)nc2)c1 (single isomer, unassigned) [Example 46, (S or R)-N-(1-(1-(2-(Azetidin-1-yl)pyrimidin-5-yl)-2-hydroxyethyl)-1H-pyrazol-4-yl)-6-(3-chloro-6-(difluoromethyl)-2-fluorophenyl)-3-methylpyrazine-2-carboxamide]
0.0081 µM | 3.69 µM | Cc1nc(Cn2cc(NC(=O)c3cncc(-c4c(C(F)F)ccc(Cl)c4F)n3)cn2)cnc1N1CC(F)(F)C1 [Example 15, 6-(3-Chloro-6-(difluoromethyl)-2-fluorophenyl)-N-(1-((5-(3,3-difluoroazetidin-1-yl)-6-methylpyrazin-2-yl)methyl)-1H-pyrazol-4-yl)pyrazine-2-carboxamide]
0.0094 µM | 0.852 µM | C[C@H](O)c1ncc(-c2c(C(F)F)ccc(Cl)c2F)nc1C(=O)Nc1cnn(Cc2cnc(N3CCC3)nc2)c1 (single isomer, unassigned) [Example 134]
 | 1.48 µM | O=C(Nc1cnn(Cc2cnc(N3C[C@H]4C[C@H]4[C@H]3CN[C@H]3CCC[C@@H]3O)nc2)c1)c1cncc(-c2c(C(F)F)ccc(Cl)c2F)n1 [Example 149, 6-(3-Chloro-6-(difluoromethyl)-2-fluorophenyl)-N-(1-((2-((1R,2S,5S)-2-((((1S,2S)-2-hydroxycyclopentyl)amino)methyl)-3-azabicyclo[3.1.0]hexan-3-yl)pyrimidin-5-yl)methyl)-1H-pyrazol-4-yl)pyrazine-2-carboxamide]
0.0062 µM | 3.51 µM | O=C(Nc1cnn(Cc2cnc(N3CCC3)c(F)c2)c1)c1cncc(-c2c(C(F)F)ccc(Cl)c2F)n1 [Example 12, N-(1-((6-(Azetidin-1-yl)-5-fluoropyridin-3-yl)methyl)-1H-pyrazol-4-yl)-6-(3-chloro-6-(difluoromethyl)-2-fluorophenyl)pyrazine-2-carboxamide]
0.001 µM | 7.72 µM | C[C@@H](F)CN(C)CC1CCCN1c1ncc(Cn2cc(NC(=O)c3cncc(-c4c(C(F)F)ccc(Cl)c4F)n3)cn2)cn1 (stereo partly drawn) [Example 151, 6-(3-Chloro-6-(difluoromethyl)-2-fluorophenyl)-N-(1-((2-(2-((((R)-2-fluoropropyl)(methyl)amino)methyl)pyrrolidin-1-yl)pyrimidin-5-yl)methyl)-1H-pyrazol-4-yl)pyrazine-2-carboxamide]
0.0232 µM | 0.992 µM | O=C(Nc1cnn(C(CO)c2cnc(N3CC4CC4C3)nc2)c1)c1cncc(-c2c(C(F)F)ccc(Cl)c2F)n1 (single isomer, unassigned) [Example 45, N-(1-((R or S)-1-(2-(3-Azabicyclo[3.1.0]hexan-3-yl)pyrimidin-5-yl)-2-hydroxyethyl)-1H-pyrazol-4-yl)-6-(3-chloro-6-(difluoromethyl)-2-fluorophenyl)pyrazine-2-carboxamide]
0.0073 µM |  | CC(N)C1CCCN1c1ncc(Cn2cc(NC(=O)c3cncc(-c4c(C(F)F)ccc(Cl)c4F)n3)cn2)cn1 (single isomer, unassigned) [Example 156, N-(1-((2-(2-(1-Aminoethyl)pyrrolidin-1-yl)pyrimidin-5-yl)methyl)-1H-pyrazol-4-yl)-6-(3-chloro-6-(difluoromethyl)-2-fluorophenyl)pyrazine-2-carboxamide]
0.0459 µM |  | O=C(Nc1cnn(Cc2cnc(N3CCCC3Cn3ccnc3)nc2)c1)c1cncc(-c2c(C(F)F)ccc(Cl)c2F)n1 (centres unmarked) [Example 109, N-(1-((2-(2-((1H-Imidazol-1-yl)methyl)pyrrolidin-1-yl)pyrimidin-5-yl)methyl)-1H-pyrazol-4-yl)-6-(3-chloro-6-(difluoromethyl)-2-fluorophenyl)pyrazine-2-carboxamide]
0.0176 µM |  | CC1C2CC2CN1c1ncc(C(CO)n2cc(NC(=O)c3cncc(-c4c(C(F)F)ccc(Cl)c4F)n3)cn2)cn1 (single isomer, unassigned) [Example 49, 6-(3-Chloro-6-(difluoromethyl)-2-fluorophenyl)-N-(1-((R or S)-2-hydroxy-1-(2-((1S,2R,5R or 1R,2S, 5S)-2-methyl-3-azabicyclo[3.1.0]hexan-3-yl)pyrimidin-5-yl)ethyl)-1H-pyrazol-4-yl)pyrazine-2-carboxamide]
0.0047 µM |  | C[C@H](c1cnc(N2C[C@H]3C[C@H]3[C@H]2C#N)nc1)n1cc(NC(=O)c2cncc(-c3c(C(F)F)ccc(Cl)c3F)n2)cn1 (single isomer, unassigned) [Example 196]
0.0322 µM |  | O=C(Nc1cnn(Cc2ccc(N3CCNC4(CC4)C3)nc2)c1)c1cncc(-c2c(C(F)F)ccc(Cl)c2F)n1 [Example 128, N-(1-((6-(4,7-Diazaspiro[2.5]octan-7-yl)pyridin-3-yl)methyl)-1H-pyrazol-4-yl)-6-(3-chloro-6-(difluoromethyl)-2-fluorophenyl)pyrazine-2-carboxamide]
0.0016 µM |  | CC(c1cnc(N2CC[C@H]2CN2CC(O)C2)nc1)n1cc(NC(=O)c2cncc(-c3c(C(F)F)ccc(Cl)c3F)n2)cn1 (stereo partly drawn) [Example 170, 6-(3-Chloro-6-(difluoromethyl)-2-fluorophenyl)-N-(1-(1-(2-((S)-2-((3-hydroxyazetidin-1-yl)methyl)azetidin-1-yl)pyrimidin-5-yl)ethyl)-1H-pyrazol-4-yl)pyrazine-2-carboxamide]
